Source: publication PMC8752738, “A propolis-derived small molecule ameliorates metabolic syndrome in obese mice by targeting the CREB/CRTC2 transcriptional complex” (Nature Communications, 2022)
Where “and” joins values, the source holds several entries; their conditions need not be identical. Equal entries are not always repeated.

What was measured:
[1] = system: promoter occupancy in primary hepatocytes; assay: ChIP assays; type: cell-based, mouse; conditions: for ChIP: CBP, CRE-PGC1a, mean / ChIP: CBP, CRE-Pck1, mean: N=4
[2] = target: T1, endogenous CREB / CRTC2 interaction (Mus musculus, UniProt Q01147); assay: Co-immunoprecipitation by anti-CRTC2 antibody, primary hepatocytes: CREB; type: cell-based
T1 construct: endogenous in cells; host or cells: mouse primary hepatocytes
Description: Fig. 2 APC blocks interaction between CREB and CRTC2. a Analysis of GST-CREB immunoprecipitated with overexpressed FLAG-CRTC2 from the lysates of HEK293T cells. APC (10 μM) was added to the culture media for 1 h and the following IP mixture. The relative gray density of FLAG in GST-pull-down fraction is shown as a bar graph (bottom). One of three independent experiments is presented (top, n = 3). Data are represented as mean ± SEM); P values were determined by one-way ANOVA followed Dunnett’s multiple comparisons test. b Analysis of HA-CRTC2 immunoprecipitated with endogenous CREB from primary hepatocyte lysates. […] Data are represented as mean ± SEM; P values were determined by one-way ANOVA followed Dunnett’s multiple comparisons test. c Immunoblotting analysis of endogenous CREB, CRTC2, and CBP interaction by an anti-CRTC2 antibody from the lysate of primary hepatocytes. […] Data are represented as mean ± SEM; P values were determined by two-way ANOVA followed Bonferroni’s multiple comparisons test. d Immunoblotting analysis of protein GST-CREB recovered HIS-CRTC2-S171A proteins purified from E. coli. […] Data are represented as mean ± SEM; P values were determined by one-way ANOVA followed Dunnett’s multiple comparisons test (compared with APC = 0). […]

Fasting blood glucose = type: in vivo, mouse; parameters: Blood glucose of CRTC2KO / blood glucose in CRTC2KO, mean: unit not given here; conditions: for blood glucose in CRTC2KO, mean / Blood glucose of CRTC2KO: Figure 9e, 20mg/kg; for blood glucose in CRTC2KO, mean: N 6
primary hepatocytes = assay: Glucose production assay; type: cell-based, mouse
Description: Primary hepatocytes were exposed to propolis, APC or vehicle control for 1-h prior to 4-h stimulation with glucagon, and then incubated in no-glucose no-phenol-red DMEM (Sigma) supplied with 2 mM sodium pyruvate (Sigma) and 10 mM sodium lactate (Sigma) for 8-h. Glucose levels in the media were detected using a GO kit (Sigma).

[3] = mean over Gluc0, Gluc30, Gluc60
[4] = primary hepatocytes exposed to glucagon, APC 10 μM

T1 sequence (Q01147 whole entry): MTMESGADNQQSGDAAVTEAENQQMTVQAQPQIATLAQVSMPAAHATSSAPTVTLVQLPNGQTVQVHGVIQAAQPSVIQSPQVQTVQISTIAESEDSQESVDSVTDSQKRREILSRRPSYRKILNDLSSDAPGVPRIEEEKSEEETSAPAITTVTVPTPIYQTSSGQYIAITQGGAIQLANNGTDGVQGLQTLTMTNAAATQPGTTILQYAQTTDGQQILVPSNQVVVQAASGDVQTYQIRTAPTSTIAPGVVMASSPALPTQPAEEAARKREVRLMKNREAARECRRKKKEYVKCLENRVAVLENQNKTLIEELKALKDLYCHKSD

For `CC(C)=CCc1cc(C=CC(=O)O)cc(CC=C(C)C)c1O` [APC, 3,5-diprenyl-4-hydroxycinnamic acid], the “ChIP CREB in LXRa promoter, Input %” value ([1]; ChIP-CREB, LXRa promoter, individual replicates, n=4) was 48.6099 Input % and 36.4614 Input % and 38.9243 Input % and 32.1584 Input %, the “ChIP CREB in LXRa promoter, group mean (Mean 1)” value ([1]; ChIP-CREB, LXRa promoter, mean of N=4) was 39.04 Input % and the “ChIP CRTC2 in LXRa promoter, Input %” value ([1]; ChIP-CRTC2, LXRa promoter, individual replicates, n=4) was 91.9916 Input % and 76.2395 Input % and 65.9044 Input % and 83.3167 Input %. For the same molecule, the “ChIP CRTC2 in LXRa promoter, group mean (Mean 1)” value ([1]; ChIP-CRTC2, LXRa promoter, mean of N=4) was 79.36 Input %, the “ChIP-IgG in LXRa promoter, Input %” value ([1]; ChIP-IgG (control antibody), LXRa promoter, individual replicates, n=4) was 0.8383 Input % and 0.5702 Input % and 0.8279 Input % and 1.761 Input % and the “ChIP-IgG in LXRa promoter, group mean (Mean 1)” value ([1]; ChIP-IgG (control antibody), LXRa promoter, mean of N=4) was 0.9995 Input %. For the same molecule, the “ChIP: LXRa recuited in Srebf1 promoter, relative enrichment folds, group mean (Mean 1)” value ([1]; ChIP-LXRa, Srebf1 promoter, mean of N=4) was 0.4914 fold, the “ChIP: RXRa recuited in Srebf1 promoter, relative enrichment folds, group mean (Mean 1)” value ([1]; ChIP-RXRa, Srebf1 promoter, mean of N=4) was 0.5838 fold and the “ChIP: LXRa recuited in Srebf1 promoter, relative enrichment folds” value ([1]; ChIP:LXRa, Srebf1 promoter, individual replicates, n=4) was 0.5482 fold and 0.5209 fold and 0.4024 fold and 0.494 fold. For the same molecule, the “ChIP: RXRa recuited in Srebf1 promoter, relative enrichment folds” value ([1]; ChIP:RXRa, Srebf1 promoter, individual replicates, n=4) was 0.4207 fold and 0.6691 fold and 0.5173 fold and 0.7279 fold, the “ChIP: CBP, CRE-PGC1a, mean” value ([1]; Gluc0) was 0.891 and the “ChIP: CBP, CRE-Pck1, mean” value ([1]; Gluc0) was 0.921. The “ChIP: CBP, CRE-PGC1a, mean” value ([1]; Gluc30) was 0.574, the “ChIP: CBP, CRE-Pck1, mean” value ([1]; Gluc30) was 0.749 and the “ChIP: CBP, CRE-PGC1a, mean” value ([1]; Gluc60) was 0.582. The “ChIP: CBP, CRE-Pck1, mean” value ([1]; Gluc60) was 0.834, the “Mean of APC_ChIP: CBP, CRE-G6pc” value [1, 3] was 1.496 and the “Mean of ChIP: CBP & APC, CRE-Pck1” value [1, 3] was 0.835. The “Mean of ChIP: CBP & APC, CRE-Pgc-1a” value [1, 3] was 0.682, the “CRTC2 recruited to CRE sites of G6pc, Pgc-1α and Pck1 promoters (ChIP)” value [1, 4] was “significantly attenuated” and the “occupancy of CREB or CBP at CRE sites (ChIP)” value [1, 4] was “little effect”. The “LXRα and RXRα recruited to LXRE element of Srebf1 promoter (ChIP)” value ([1]; primary hepatocytes, APC 10 μM) was “reduced”, the “occupancy of CRTC2 on half CRE site of Lxrα promoter (ChIP)” value ([1]; primary hepatocytes, glucagon, APC 10 μM) was “attenuated” and the “CREB/CRTC2 band gray signal, CRTC2-COIP fraction” value ([2]; Fig 2c replicates, APC+ (10 μM)) was 0.6304 and 0.625 and 0.6291. For the same molecule, the “endogenous CREB co-immunoprecipitated by anti-CRTC2 antibody” value ([2]; primary hepatocyte lysates, APC 10 μM) was “significantly decreased”, the “fasting blood glucose levels” value (Fasting blood glucose; DIO and db/db mice, i.p. 20 mg/kg) was “remarkably decreased” and the “blood glucose in CRTC2KO, mean” value (Fasting blood glucose; CRTC2KO mice, group mean) was 3.317. For the same molecule, the “Blood glucose of CRTC2KO” value (Fasting blood glucose; CRTC2KO mice, single animals) was 3.3 (2×) and 3.8 and 2.6 and 3.1, the “blood glucose in CRTC2KO, mean” value (Fasting blood glucose; WT mice, group mean) was 3.65 and the “Blood glucose of CRTC2KO” value (Fasting blood glucose; WT mice, single animals) was 2.1 and 3.3 and 3.2 (3×) and 4. For the same molecule, the “FBG in db/db, mean” value (Fasting blood glucose; Figure 9f, db/db, group mean, n 5) was 19.96 mM, the “Fasting blood glucose” value (Fasting blood glucose; Figure 9f, db/db, single animals) was 13 mM and 22 mM and 26.3 mM and 18.9 mM and 19.6 mM and the “Fasting blood glucose, mean of column B” value (Fasting blood glucose; Figure 8d, group mean, n=6, VEH mean 137.4) was 91.6 mg/dL. For the same molecule, the Fasting blood glucose (Fasting blood glucose; Figure 8d, individual mice) was 79.2 mg/dL and 84.6 mg/dL and 110.4 mg/dL and 95.4 mg/dL and 102.6 mg/dL and 77.4 mg/dL, the “fasting blood glucose levels” value (Fasting blood glucose; db/db mice, one oral delivery 5 mg/kg) was “little effect” and the “fasting blood glucose in db/db mice, mean” value (Fasting blood glucose; group mean, n=6) was 109.4 mg/dL. The “effect on fasting blood glucose in Crtc2KO mice” value (Fasting blood glucose; high-fat diet, oral 20 mg/kg daily, 3 days) was “abolished”, the “fasting blood glucose in db/db mice” value (Fasting blood glucose; individual mouse) was 141.4 mg/dL and 95.6 mg/dL and 108 mg/dL and 121.6 mg/dL and 83.4 mg/dL and 106.2 mg/dL and the “glucose output and Pgc-1α, Pck1 expression in CRTC2-null primary hepatocytes” value (primary hepatocytes; glucagon, APC 10 μM) was “unable to further reduce”. The “glucose output induced by glucagon” value (primary hepatocytes; primary hepatocytes, APC 5 μM) was “reduced”.
